# According to US9340520B2, “Hepatitis C virus inhibitors” (Bristol-Myers Squibb Company, priority 2011, dated 2016):
# Columns and labels:
# [1] = IV and PO single dose pharmacokinetic studies in rat; format: in vivo; settings: male Sprague-Dawley rats, plasma; for AUC: oral gavage 5 mg/kg, 24 h, read-out: 24 h rat PK (Auc); for bioavailability: oral gavage 5 mg/kg vs IV infusion 2 mg/kg, read-out: 24 h rat PK (oral bioavailability)
# Experimental: The pharmacokinetics of Examples 1 to 6 and Compound-A (WO2008/021927) were characterized in male Sprague-Dawley rats (260-310 g) (see Table 2). In these studies, two groups of animals (N=3 per group) received compound either as an intravenous (IV) infusion (2 mg/kg over 10 minutes) via the jugular vein or by oral gavage (5 mg/kg) in a vehicle of 100% PEG 400 or 90:5:5 PEG 400:ethanol:TPGS, respectively. The rats in the oral dosing group were fasted overnight. Serial blood samples were obtained at 0.17 (IV only), 0.25, 0.5, 0.75, 1, 2, 4, 6, 8, and 24 h post dose. Blood samples (˜0.3 mL) were collected from the jugular vein into K3EDTA-containing tubes and then centrifuged at 4° C. (1500-2000×g) to obtain plasma. Plasma samples were stored at −20° C. until analysis by LC/MS/MS.
# A bioanalytical method utilizing liquid chromatography separation followed by tandem mass spectrometry detection (LC/MS/MS) was developed for the compound analysis in rat plasma. Detection was performed using selected reaction monitoring. Ions representing the precursor (M+H)^+ species were selected in quadrupole 1 and collisionally dissociated with N2 to generate specific product ions, which were subsequently monitored by quadrupole 3. Standard curves were prepared in male rat plasma and processed in the same manner as test samples to generate quantitative data.
# Pharmacokinetic parameter values were calculated using noncompartmental methods by Kinetica. Values below the lower limit of quantification (LLOQ) were not used in calculations. Area under the curve (AUC) was calculated using the linear trapezoidal rule.
# [2] = Cytotoxicity (CC50) in G 1a replicon cells; format: cell-based; settings: HCV G 1a replicon cells
# Experimental: (§1) An HCV Replicon assay was utilized in the present disclosure, and was prepared, conducted and validated as described in commonly owned PCT/US2006/022197 and in O'Boyle et. al. Antimicrob Agents Chemother. 2005 April; 49(4):1346-53. Recommended assay methods incorporating luciferase reporters have also been used as described from commercial sources (Apath.com).
# [3] = system: HCV genotype 1b LV/YH double resistant mutant; test: HCV replicon assay, genotype 1b LV/YH double resistant mutant; format: cell-based; settings: Hepatitis C virus, read-out: EC50 G 1b LV/YH
# Experimental: as §1
# (§2) HCV-neo replicon cells and replicon cells containing resistance substitutions in the NS5A region were used to test the currently described family of compounds. The compounds were determined to have differing degrees of reduced inhibitory activity on cells containing mutations vs. the corresponding inhibitory potency against wild-type cells. Thus, the compounds of the present disclosure can be effective in inhibiting the function of the HCV NS5A protein and are understood to be as effective in combinations as previously described in application PCT/US2006/022197 and commonly owned WO/04014852. It should be understood that the compounds of the present disclosure can inhibit multiple genotypes of HCV.
# [4] = system: HCV genotype 1b wild type; test: HCV replicon assay, genotype 1b wild type; format: cell-based; settings: Hepatitis C virus, HCV replicon cells, read-out: EC50 G 1b wild type
# Experimental: as §1, §2
# [5] = system: genotype-1a YH single resistant mutant; test: HCV replicon assay, genotype-1a YH single resistant mutant; format: cell-based; settings: Hepatitis C virus, read-out: EC50 G 1a YH
# Experimental: as §1, §2
# HCV genotype 1a = test: HCV replicon assay, genotype 1a; format: cell-based; settings: Hepatitis C virus; HCV replicon cells, genotype 1a wild type; read-out: EC50 G 1a wild type
# Experimental: as §1, §2
Compound,AUC [1],bioavailability [1],CC50 [2],EC50 [3],EC50 [4],EC50 [5],EC50 (HCV genotype 1a)
"COC(=O)N[C@H](C(=O)N1CCC[C@H]1c1nc(-c2ccc(-c3ccc(-c4c[nH]c([C@@H]5CCCN5C(=O)[C@@H](NC(=O)OC)C5CCOCC5)n4)cc3)cc2)c[nH]1)C1CCOCC1 [Compound-A, reference compound]",0.103 µM·h,1.3%,63900 nM,20 nM,0.119 nM,13 nM,0.0511 nM
COC(=O)N[C@H](C(=O)N1[C@@H](C)CC[C@H]1c1nc(-c2ccc(-c3ccc(-c4c[nH]c([C@@H]5CC[C@H](C)N5C(=O)[C@@H](NC(=O)OC)[C@H]5C[C@@H](C)O[C@@H](C)C5)n4)cc3)cc2)c[nH]1)[C@@H]1C[C@@H](C)O[C@@H](C)C1 [Example-1],1.6 µM·h,15%,8460 nM,3.19 nM,0.00396 nM,0.977 nM,0.00548 nM
"COC(=O)N[C@H](C(=O)N1[C@@H](C)CC[C@H]1c1nc(-c2ccc(-c3ccc(-c4c[nH]c([C@@H]5CC[C@H](C)N5C(=O)[C@@H](NC(=O)OC)C5C[C@@H](C)O[C@H](C)C5)n4)cc3)cc2)c[nH]1)C1C[C@@H](C)O[C@H](C)C1 (stereo partly drawn) [Example-2, Dimethyl(4,4′-biphenyldiylbis(1H-imidazole-4,2-diyl((2S,5S)-5-methyl-2,1-pyrrolidinediyl)((1S)-1-((2R,6R)-2,6-dimethyltetrahydro-2H-pyran-4-yl)-2-oxo-2,1-ethanediyl)))biscarbamate]",2.22 µM·h,12%,5890 nM,0.115 nM,0.00803 nM,0.158 nM,0.00643 nM
COC(=O)N[C@H](C(=O)N1[C@@H](C)CC[C@H]1c1nc(-c2ccc(-c3ccc(-c4c[nH]c([C@@H]5CC[C@H](C)N5C(=O)[C@@H](NC(=O)OC)C5C[C@@H](C)O[C@H](C)C5)n4)c(C)c3)cc2)c[nH]1)C1C[C@@H](C)O[C@H](C)C1 (stereo partly shown) [Example-3],4.49 µM·h,17%,6150 nM,0.191 nM,0.00641 nM,1.08 nM,0.0052 nM
COC(=O)N[C@H](C(=O)N1[C@@H](C)CC[C@H]1c1nc(-c2ccc(-c3ccc(-c4c[nH]c([C@@H]5CC[C@H](C)N5C(=O)[C@@H](NC(=O)OC)C5C[C@@H](C)O[C@H](C)C5)n4)c(F)c3)cc2)c[nH]1)C1C[C@@H](C)O[C@H](C)C1 (stereo partly shown) [Example-4],1.73 µM·h,16%,7750 nM,0.436 nM,0.00415 nM,0.402 nM,0.00595 nM
COC(=O)N[C@H](C(=O)N1[C@H](c2nc(-c3ccc(-c4ccc(-c5c[nH]c([C@@H]6C[C@@]7(C)C[C@H]7N6C(=O)[C@@H](NC(=O)OC)C6C[C@@H](C)O[C@H](C)C6)n5)cc4)cc3)c[nH]2)C[C@@]2(C)C[C@@H]12)C1C[C@@H](C)O[C@H](C)C1 (stereo partly shown) [Example-5],0.539 µM·h,6.3%,5340 nM,0.00985 nM,0.00685 nM,0.0607 nM,0.00372 nM
COC(=O)N[C@H](C(=O)N1CCC[C@H]1c1nc(-c2ccc(-c3ccc(-c4c[nH]c([C@@H]5CCCN5C(=O)[C@@H](NC(=O)OC)C5C[C@@H](C)O[C@H](C)C5)n4)cc3)cc2)c[nH]1)C1C[C@@H](C)O[C@H](C)C1 (stereo partly shown) [Example-6],1.36 µM·h,5%,15400 nM,0.659 nM,0.0367 nM,0.383 nM,0.0162 nM
